In test [1] the target is Human Cot (Homo sapiens (Human), UniProt P41279). As to the kind of experiment: High Throughput Cot Biochemical Assay.
In test [2] the test system is TNFα. In words: Cot Monocyte TNFα Cell Based Assay.
[3] abbreviates: IC50 HTRF, Cot HTRF (TR-FRET) biochemical assay.
Setting [4] is: Homo sapiens, Monocyte, read-out: EC50 TNF, LPS-stimulated human monocytes, TNFα.
The mark [5] stands for this setting: IC50 HTRF, Cot HTRF (TR-FRET KinEASE) biochemical assay, 400 μM ATP.
Setting [6] is: Homo sapiens, Monocyte, read-out: EC50 TNF, LPS-stimulated human monocytes, TNFα TR-FRET.

IC50 and EC50 data for 21 compounds are collected here from US11066414B2, “Cot modulators and methods of use thereof” (Gilead Sciences, Inc., priority 2015, dated 2021).

Read-outs that look alike come from different tables or passages of the source.

Human Cot, sequence (P41279 30-397): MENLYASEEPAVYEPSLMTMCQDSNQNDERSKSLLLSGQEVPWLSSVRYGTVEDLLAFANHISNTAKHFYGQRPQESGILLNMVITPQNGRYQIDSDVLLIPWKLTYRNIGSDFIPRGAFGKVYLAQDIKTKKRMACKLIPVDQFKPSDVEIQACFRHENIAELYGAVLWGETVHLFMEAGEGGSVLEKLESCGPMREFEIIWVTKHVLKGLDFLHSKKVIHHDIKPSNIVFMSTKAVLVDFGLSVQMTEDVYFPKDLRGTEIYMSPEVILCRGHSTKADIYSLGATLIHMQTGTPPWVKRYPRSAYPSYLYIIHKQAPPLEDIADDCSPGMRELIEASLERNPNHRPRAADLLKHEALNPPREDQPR

`Cc1nc(F)ccc1[C@H](Nc1cc(Cl)c2ncc(C#N)c(NCC(C)(C)S(C)(=O)=O)c2c1)c1cn(C2(C(F)(F)F)CC2)nn1` [Example 722, (S)-8-chloro-6-(((6-fluoro-2-methylpyridin-3-yl)(1-(1-(trifluoromethyl)-cyclopropyl)-1H-1,2,3-triazol-4-yl)methyl)amino) -4-((2-methyl-2-(methylsulfonyl)propyl)amino)-quinoline-3-carbonitrile] showed an IC50 in test [1] (setting [3]) of 0.043 µM. Also, the EC50 in test [2] (setting [4]) amounted to 0.403 µM.
`N#CCCC(Nc1c(C#N)cnc2c(Cl)cc(N[C@H](c3cn(C4[C@H]5CN(C6COC6)C[C@@H]45)nn3)c3csc4c3CCN(C3COC3)C4)cc12)c1ccccc1` (stereo partly drawn) [Example 82, 8-chloro-4-((3-cyano-1-phenylpropyl)amino)-6-(((S)-(1-((1R,5S,6r)-3-(oxetan-3-yl)-3-azabicyclo[3.1 0]hexan-6-yl)-1H-1,2,3-triazol-4-yl)(6-(oxetan-3-yl)-4,5,6,7-tetrahydrothieno[2,3-c]pyridin-3-yl)methyl)amino)-quinoline-3-carbonitrile]: in test [1] (read-out: IC50 HTRF, Cot HTRF (TR-FRET) biochemical assay), the IC50 was determined as 0.002 µM. Also, the EC50 in test [2] (read-out: EC50 TNF, LPS-stimulated human monocytes, TNFα) was determined as 0.151 µM.
Regarding `CC(C)(C)CNc1c(C#N)cnc2c(Cl)cc(N[C@@H](c3cnc4ccccc4c3)c3cn(C4(C(F)(F)F)CC4)nn3)cc12` [Example 629, (S)-8-chloro-4-(neopentylamino)-6-((quinolin-3-yl(1-(1-(trifluoromethyl)cyclopropyl)-1H-1,2,3-triazol-4-yl)methyl)amino)quinoline-3-carbonitrile], the IC50 in test [1] (setting [3]) was found to be 0.181 µM. In addition, the EC50 in test [2] (setting [4]) is 1 µM.
On the same counts, the results for `CCN1CCC(n2cc([C@@H](Nc3cc(Cl)c4ncc(C#N)c(Nc5ccc(F)c(Cl)c5)c4c3)c3ccc(Cl)nc3)nn2)CC1` [Example 379, (S)-8-chloro-4-((3-chloro-4-fluoro-phenyl)amino)-6-(((6-chloropyridin-3-yl)(1-(1-ethylpiperidin-4-yl)-1H-1,2,3-triazol-4-yl)methyl)amino)quinoline-3-carbonitrile] are 0.006 µM and 0.179 µM.
On the same counts, the results for `CC(C)(C)CNc1c(C#N)cnc2c(Cl)cc(N[C@@H](c3ccc4cccnc4c3)c3cn(C4(C(F)(F)F)CC4)nn3)cc12` [Example 698, (S)-8-chloro-4-(neopentylamino)-6-((quinolin-7-yl(1-(1-(trifluoromethyl)cyclopropyl)-1H-1,2,3-triazol-4-yl)methyl)amino)quinoline-3-carbonitrile] are 0.027 µM and 0.684 µM.
Regarding `Cn1ccc2c([C@H](Nc3cc(C#N)c4ncc(C#N)c(NCC(C)(C)C(F)(F)F)c4c3)c3cn(C4(C(F)F)CC4)nn3)cccc2c1=O` [Example 838, (S)-6-(((1-(1-(difluoromethyl)-cyclopropyl)-1H-1,2,3-triazol-4-yl)(2-methyl-1-oxo-1,2-dihydroisoquinolin-5-yl)methyl)amino)-4-((3,3,3-trifluoro-2,2-dimethylpropyl)-amino)quinoline-3,8-dicarbonitrile], the IC50 in test [1] (setting [5]) was 0.003 µM. Besides, in test [2] (setting [6]), the EC50 worked out at 0.084 µM.
On the same counts, the results for `Cn1ccc2c([C@H](Nc3cc(C#N)c4ncc(C#N)c(NCC(C)(C)C)c4c3)c3cn(C4(C(F)F)CC4)nn3)cccc21` [Example 847, (S)-6-(((1-(1-(difluoromethyl)-cyclopropyl)-1H-1,2,3-triazol-4-yl)(1-methyl-1H-indol-4-yl)methyl)amino)-4-(neopentylamino)quinoline-3,8-dicarbonitrile] are 0.031 µM and 0.296 µM.
Take `N#Cc1cnc2c(Cl)cc(N[C@H](c3cn(C4COC4)nn3)c3csc(N4CCOCC4)n3)cc2c1Nc1ccc(F)c(Cl)c1` [Example 302, (S)-8-chloro-4-((3-chloro-4-fluoro-phenyl)amino)-6-(((2-morpholinothiazol-4-yl)(1-(oxetan-3-yl)-1H-1,2,3-triazol-4-yl)methyl)amino)quinoline-3-carbonitrile]: half-maximal inhibition in test [1] (setting [3]) (IC50) required 0.01 µM. The EC50 in test [2] (setting [4]) is 0.472 µM.
In test [1] (setting [3]), `CC(C)(C)CNc1c(C#N)cnc2c(C#N)cc(N[C@H](c3cn(C4(C(F)(F)F)CC4)nn3)c3ccc(C#N)c4cnccc34)cc12` [Example 670, (S)-6-(((8-cyanoisoquinolin-5-yl)(1-(1-(trifluoromethyl)cyclopropyl)-1H-1,2,3-triazol-4-yl)methyl)amino)-4-(neopentylamino)quinoline-3,8-dicarbonitrile] had a concentration for half-maximal inhibition (IC50) of 0.005 µM. The EC50 in test [2] (setting [4]) was determined as 0.102 µM.
On the same counts, the results for `CC(C)(C)CNc1c(C#N)cnc2c(Cl)cc(N[C@H](c3cn(C4(C(F)F)CC4)nn3)c3cccc4c(=O)[nH]ccc34)cc12` [Example 765, (S)-8-chloro-6-(((1-(1-(difluoromethyl)cyclopropyl)-1H-1,2,3-triazol-4-yl)(1-oxo-1,2-dihydroisoquinolin-5-yl)methyl)amino)-4-(neopentylamino)quinoline-3-carbonitrile] are 0.004 µM and 0.131 µM.
On the same counts, the results for `N#Cc1cnc2c(Cl)cc(N[C@@H](c3cccnc3)c3c[nH]nn3)cc2c1Nc1ccc(Cl)c(Cl)c1F` [Example 256, (S)-8-chloro-4-((3,4-dichloro-2-fluorophenyl)amino)-6-((pyridin-3-yl(1H-1,2,3-triazol-4-yl)methyl)-amino)quinoline-3-carbonitrile] are 0.016 µM and 0.341 µM.
On the same counts, the results for `N#Cc1cnc2c(Cl)cc(N[C@@H](c3cscn3)c3c[nH]nn3)cc2c1Nc1ccc(F)c(Cl)c1` [Example 276, (S)-8-chloro-4-((3-chloro-4-fluorophenyl)amino)-6-((thiazol-4-yl(1H-1,2,3-triazol-4-yl)methyl)amino)quinoline-3-carbonitrile] are 0.006 µM and 0.789 µM.
`Cc1nc(F)ccc1[C@H](Nc1cc(Cl)c2ncc(C#N)c(NCC(C)(C)C)c2c1)c1nnn(C2(C3CC3)CC2)c1F` [Example 949, (S)-6-(((1-([1,1′-bi(cyclopropan)]-1-yl)-5-fluoro-1H-1,2,3-triazol-4-yl)(6-fluoro-2-methylpyridin-3-yl)methyl)amino)-8-chloro-4-(neopentylamino)quinoline-3-carbonitrile]: the IC50 in test [1] (setting [5]) was 0.004 µM. Besides, the concentration for a half-maximal effect (EC50) in test [2] (setting [6]) was found to be 0.034 µM.
The compound `N#Cc1cnc2c(Cl)cc(N[C@H](c3c[nH]nn3)c3cnccc3Cl)cc2c1Nc1cnc(F)c(F)c1` [Example 153, (S)-8-chloro-6-(((4-chloropyridin-3-yl)(1H-1,2,3-triazol-4-yl)methyl)amino)-4-((5,6-difluoropyridin-3-yl)amino)quinoline-3-carbonitrile] showed an IC50 in test [1] (setting [3]) of 0.044 µM. Also, the EC50 in test [2] (setting [4]) turned out to be 3.76 µM.
On the same counts, the results for `CC[C@@H](Nc1c(C#N)cnc2c(Cl)cc(N[C@@H](c3cccnc3)c3c[nH]nn3)cc12)c1ccccc1` [Example 254, 8-chloro-4-(((R)-1-phenylpropyl)amino)-6-(((S)-pyridin-3-yl(1H-1,2,3-triazol-4-yl)methyl)amino)quinoline-3-carbonitrile] are 0.003 µM and 0.23 µM.
For `N#CCC[C@@H](Nc1c(C#N)cnc2c(Cl)cc(N[C@H](c3cn(C4CC4)nn3)c3csc4c3CCN(C3COC3)C4)cc12)c1ccccc1` [Example 84, 8-chloro-4-(((R)-3-cyano-1-phenylpropyl)amino)-6-(((S)-(1-cyclopropyl-1H-1,2,3-triazol-4-yl)(6-(oxetan-3-yl)-4,5,6,7-tetrahydrothieno[2,3-c]pyridin-3-yl)methyl)amino)quinoline-3-carbonitrile], the midpoint of inhibition in test [1] (setting [3]), the IC50, lay at 0.001 µM. In test [2] (setting [4]), the EC50 stood at 0.01 µM.
For `CC(C)(C)CNc1c(C#N)cnc2c(Cl)cc(N[C@H](c3cn(C4(C(N)=O)CC4)nn3)c3cccc4cnccc34)cc12` [Example 561, (S)-1-(4-(((8-chloro-3-cyano-4-(neopentylamino)quinolin-6-yl)amino) (isoquinolin-5-yl)methyl)-1H-1,2,3-triazol-1-yl)cyclopropane-1-carboxamide], in test [1] (setting [3]), the IC50 was 0.002 µM. For the same compound, the EC50 in test [2] (setting [4]) came to 0.433 µM.
`N#CCC[C@@H](Nc1c(C#N)cnc2c(Cl)cc(N[C@H](c3cn(C4CC4)nn3)c3cccc4ncsc34)cc12)c1ccccc1` [Example 69, 6-(((S)-benzo[d]thiazol-7-yl(1-cyclopropyl-1H-1,2,3-triazol-4-yl)methyl)amino)-8-chloro-4-(((R)-3-cyano-1-phenylpropyl)amino)quinoline-3-carbonitrile] showed an IC50 in test [1] (setting [3]) of 0.002 µM. Moreover, in test [2] (setting [4]), the EC50 was determined as 0.033 µM.
On the same counts, the results for `N#Cc1cnc2c(Cl)cc(N[C@@H](c3cccnc3)c3c[nH]nn3)cc2c1Nc1ccc(F)c(Cl)c1` [Example 308, (S)-8-chloro-4-((3-chloro-4-fluorophenyl)amino)-6-((pyridin-3-yl(1H-1,2,3-triazol-4-yl)methyl)amino)-quinoline-3-carbonitrile] are 0.004 µM and 0.286 µM.
On the same counts, the results for `CC(C)(C)CNc1c(C#N)cnc2c(Cl)cc(N[C@H](c3cn(C45CC(C4)C5)nn3)c3cccc4c(=O)[nH]ccc34)cc12` [Example 787, (S)-6-(((1-(bicyclo[1.1.1]pentan-1-yl)-1H-1,2,3-triazol-4-yl)(1-oxo-1,2-dihydroisoquinolin-5-yl)methyl)amino)-8-chloro-4-(neopentylamino)quinoline-3-carbonitrile] are 0.002 µM and 0.065 µM.
On the same counts, the results for `CC(C)(C)CNc1c(C#N)cnc2c(Cl)cc(N[C@H](c3cn(C4(C(F)(F)F)CC4)nn3)c3cnn4ncccc34)cc12` [Example 493, (S)-8-chloro-4-(neopentylamino)-6-((pyrazolo[1,5-b]pyridazin-3-yl(1-(1-(trifluoromethyl)cyclopropyl)-1H-1,2,3-triazol-4-yl)methyl)amino)quinoline-3-carbonitrile] are 0.031 µM and 1 µM.

One may read the IC50 as the concentration needed to halve the response being measured. As usually defined, the EC50 is the midpoint of the concentration-response curve.
